Measurements as given in ChEMBL document CHEMBL4024756, “Identification of 4-Phenoxyquinoline Based Inhibitors for L1196M Mutant of Anaplastic Lymphoma Kinase by Structure-Based Design” (J Med Chem, 2017).
Calls of active or inactive are those of the source. The calls are words filed in the database; no cut-off is given here.

Tested on: ALK tyrosine kinase receptor (Homo sapiens), Q9UM73 [L1196M]
Sequence (Q9UM73 whole entry L1196M, looked up): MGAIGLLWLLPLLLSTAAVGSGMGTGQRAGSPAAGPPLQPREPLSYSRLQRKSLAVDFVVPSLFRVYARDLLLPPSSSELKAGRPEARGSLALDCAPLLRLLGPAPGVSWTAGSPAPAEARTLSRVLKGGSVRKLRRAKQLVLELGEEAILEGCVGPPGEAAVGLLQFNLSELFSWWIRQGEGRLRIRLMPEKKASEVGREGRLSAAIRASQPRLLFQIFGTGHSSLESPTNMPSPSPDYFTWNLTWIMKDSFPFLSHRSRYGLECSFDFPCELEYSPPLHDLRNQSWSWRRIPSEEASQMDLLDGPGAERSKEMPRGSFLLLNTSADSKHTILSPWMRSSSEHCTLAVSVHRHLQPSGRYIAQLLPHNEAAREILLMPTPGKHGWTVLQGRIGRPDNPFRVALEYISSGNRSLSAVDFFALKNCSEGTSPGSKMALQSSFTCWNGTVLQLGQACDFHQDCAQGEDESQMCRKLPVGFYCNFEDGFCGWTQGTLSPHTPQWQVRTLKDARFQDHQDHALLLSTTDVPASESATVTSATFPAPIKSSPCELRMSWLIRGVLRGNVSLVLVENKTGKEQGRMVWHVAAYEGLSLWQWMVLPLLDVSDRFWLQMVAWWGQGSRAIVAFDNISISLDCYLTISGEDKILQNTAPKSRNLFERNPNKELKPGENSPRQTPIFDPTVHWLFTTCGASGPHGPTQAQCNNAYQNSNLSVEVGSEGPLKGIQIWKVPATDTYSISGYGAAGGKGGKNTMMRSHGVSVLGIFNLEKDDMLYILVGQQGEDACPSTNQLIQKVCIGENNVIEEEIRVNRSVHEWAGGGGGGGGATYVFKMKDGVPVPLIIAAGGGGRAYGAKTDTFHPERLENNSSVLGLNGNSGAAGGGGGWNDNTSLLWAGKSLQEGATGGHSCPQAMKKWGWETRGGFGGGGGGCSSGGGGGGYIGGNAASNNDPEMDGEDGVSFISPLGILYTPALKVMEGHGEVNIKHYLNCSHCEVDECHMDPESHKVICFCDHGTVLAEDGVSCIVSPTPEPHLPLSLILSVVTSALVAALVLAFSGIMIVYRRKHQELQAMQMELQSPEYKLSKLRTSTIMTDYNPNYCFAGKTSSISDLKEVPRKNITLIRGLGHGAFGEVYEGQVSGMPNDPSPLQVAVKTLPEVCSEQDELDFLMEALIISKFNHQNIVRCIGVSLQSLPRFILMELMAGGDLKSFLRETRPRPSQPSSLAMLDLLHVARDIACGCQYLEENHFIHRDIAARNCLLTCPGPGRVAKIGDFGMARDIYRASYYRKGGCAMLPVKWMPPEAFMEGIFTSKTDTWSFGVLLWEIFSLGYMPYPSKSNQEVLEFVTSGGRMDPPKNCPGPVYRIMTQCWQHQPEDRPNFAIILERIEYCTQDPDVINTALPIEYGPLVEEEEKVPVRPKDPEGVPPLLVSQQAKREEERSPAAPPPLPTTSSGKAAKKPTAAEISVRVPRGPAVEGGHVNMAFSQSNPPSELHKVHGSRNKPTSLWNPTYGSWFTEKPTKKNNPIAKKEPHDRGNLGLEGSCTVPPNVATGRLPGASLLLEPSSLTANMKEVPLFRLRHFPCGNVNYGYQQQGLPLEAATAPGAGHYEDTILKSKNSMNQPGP

For `Cc1ccc(Oc2ccnc3cc(-c4cnn(C5CCNCC5)c4)ccc23)cc1`, the TDI was “inactive”.
